Laboratory results taken from EP0047977A2, “Cephalosporin derivatives, process for their preparation, pharmaceutical compositions containing them and their use” (CIBA-GEIGY AG, priority 1980, dated 1982).
≈ marks a conversion by molar mass, not a printed value.

Legend:
[1] = test system: Streptococcus pyogenes Aronson; assay: Antibiotic activity in vitro, agar dilution method in DST agar (MIC); assay type: cell-based
[2] = test system: Pseudomonas aeruginosa ATCC 12055; assay: as above; assay type: cell-based; conditions: ATCC12055
Escherichia coli 205 = assay: as above; assay type: cell-based
[3] = test system: Escherichia coli 205 K 1075; assay: Chemotherapeutic efficacy in vivo against systemic infection in the mouse (ED50); conditions: 205K1075, sc; s.c.; systemic infection with Escherichia coli 205 K 1075 in female SPF, MF2 mice
Source text: (§1) B. Die chemotherapeutische Wirksamkeit in vivo gegen systemische Infektionen in weiblichen SPF, MF2 Mäusen wurde nach der Methode von Zak, 0., et al., 1979, Drugs Exptl. Clin. Res. 5, 45-59, ermittelt. Die gefundenen ED50-Werte in Milligramm Substanz pro Kilogramm Maus (mg/kg) gegen eine Anzahl von Mikroorganismen werden für die subcutan (s.c.) applizierten Testverbindungen in der Tabelle 2 angegeben.

[4] = test system: Pseudomonas aeruginosa ATCC 12055; assay: as above; conditions: ATCC12055, sc; s.c.; systemic infection with Pseudomonas aeruginosa ATCC 12055 in female SPF, MF2 mice
Source text: as §1

[5] = test system: Clostridium perfringens (anaerob); assay: microbe, parasite or virus in culture; assay type: cell-based

Row | SMILES | MIC [1] | MIC [2] | MIC (Escherichia coli 205) | ED50 [3] | ED50 [4] | MIC [5]
1 | CO/N=C(\C(=O)N[C@@H]1C(=O)N2C(C(=O)[O-])=C(C[n+]3ccc(C(=O)O)cc3)CS[C@H]12)c1nsc(N)n1 [Verbindung 1, 7ß-[2-(5-Amino-1,2,4-thiadiazol-3-yl)-2-Z-methoxyiminoacetamido]-3-(4-carboxypyridiniomethyl)-3-cephem-4-carboxylat] | 0.1 µg/mL (≈ 0.192 µM) | 1 µg/mL (≈ 1.92 µM) | 0.05 µg/mL (≈ 0.0962 µM) | 0.9 mg/kg | 6 mg/kg | 
2 | CC(C)(O/N=C(\C(=O)N[C@@H]1C(=O)N2C(C(=O)[O-])=C(C[n+]3cccc(CC(=O)O)c3)CS[C@H]12)c1nsc(N)n1)C(=O)O [Verbindung 2, 7β-[2-(5-Amino-1,2,4-thiadiazol-3-yl)-2-Z-2-carboxyprop-2-yloxy-iminoacetamido]-3-(3-carboxymethylpyridiniomethyl)-3-cephem-4-carboxylat] | 1 µg/mL (≈ 1.65 µM) | 0.5 µg/mL (≈ 0.826 µM) | 1 µg/mL (≈ 1.65 µM) | 2 mg/kg | ≥ 30 mg/kg | 0.1 µg/mL (≈ 0.165 µM)
3 | Cn1ccc[n+]1CC1=C(C(=O)[O-])N2C(=O)[C@@H](NC(=O)/C(=N\OC(C)(C)C(=O)O)c3nsc(N)n3)[C@H]2SC1 [Verbindung 3, 7ß-[2-(5-Amino-1,2,4-thiadiazol-3-yl)-2-Z-2-carboxyprop-2-yloxy-iminoacetamido]-3-(2-methyl-1-pyrazoliomethyl)-3-cephem-4-carboxylat] | 0.5 µg/mL (≈ 0.908 µM) | 2 µg/mL (≈ 3.63 µM) | 0.5 µg/mL (≈ 0.908 µM) | 5 mg/kg | 10 mg/kg | 0.05 µg/mL (≈ 0.0908 µM)
4 | CO/N=C(\C(=O)N[C@@H]1C(=O)N2C(C(=O)[O-])=C(C[n+]3cccn3C)CS[C@H]12)c1nsc(N)n1 [Verbindung 4, 7β-[2-(5-Amino-1,2,4-thiadiazol-3-yl)-2-Z-methoxyiminoacetamido]-3-(2-methyl-1-pyrazoliomethyl)-3-cephem-4-carboxylat] | 0.1 µg/mL (≈ 0.209 µM) | 0.5 µg/mL (≈ 1.04 µM) | 0.1 µg/mL (≈ 0.209 µM) | 2.4 mg/kg | 30 mg/kg | 
5 | CO/N=C(\C(=O)N[C@@H]1C(=O)N2C(C(=O)[O-])=C(C[n+]3cccc(Br)c3)CS[C@H]12)c1nsc(N)n1 [Verbindung 5, 7β-[2-(5-Amino-1,2,4-thiadiazol-3-yl)-2-Z-methoxyiminoacetamido]-3--(3-brompyridiniomethyl)-3-cephem-4-carboxylat] | 0.05 µg/mL (≈ 0.0902 µM) | 0.5 µg/mL (≈ 0.902 µM) | 0.1 µg/mL (≈ 0.18 µM) | 0.9 mg/kg | 10 to 30 mg/kg | 0.01 µg/mL (≈ 0.018 µM)
6 | CO/N=C(\C(=O)N[C@@H]1C(=O)N2C(C(=O)[O-])=C(C[n+]3ccc(CO)cc3)CS[C@H]12)c1nsc(N)n1 [Verbindung 6, 7ß-[2-(5-Amino-1,2,4-thiadiazol-3-yl)-2-Z-methoxyiminoacetamido]-3-(4-hydroxymethylpyridiniomethyl)-3-cephem-4-carboxylat] |  | 0.1 µg/mL (≈ 0.198 µM) | 0.05 µg/mL (≈ 0.0989 µM) |  | 3 to 10 mg/kg | 0.01 µg/mL (≈ 0.0198 µM)
